Data from the supplement of paper PMC10627819.

What was measured:
Assay in all cases: Bliss interaction score (quartile over a dose matrix) (fitness difference); higher = more antagonism (negative = synergy)
B. subtilis 168 = test system: B. subtilis 168
In short: (§1)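 Fitness was derived from optical density at entry into stationary phase, divided by the robust mean of the no-drug wells on the same plate. That reading was taken as OD595, and the ratio was capped at 1. Single-drug fitness was inferred from the combination data. The Bliss score, observed fitness minus the expected product of single-drug fitness, was summarised as quartiles over technical, biological and donor/recipient replicates.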

S. aureus DSM 20231 = test system: S. aureus DSM 20231
In short: as §1

S. aureus Newman = test system: S. aureus Newman
In short: as §1

S. pneumoniae D39V = test system: S. pneumoniae D39V
In short: as §1
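Also: first quartile when negative (synergy) and third quartile when positive (antagonism).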

Row | SMILES | Bliss interaction score (B. subtilis 168) | Bliss interaction score (S. aureus DSM 20231) | Bliss interaction score (S. aureus Newman) | Bliss interaction score (S. pneumoniae D39V) | Bliss interaction score (B. subtilis 168; main component drawn) | Bliss interaction score (S. aureus DSM 20231; main component drawn) | Bliss interaction score (S. aureus Newman; main component drawn) | Bliss interaction score (S. pneumoniae D39V; main component drawn)
1 | CC[C@H]1OC(=O)[C@H](C)[C@@H](O[C@H]2C[C@@](C)(OC)[C@@H](O)[C@H](C)O2)[C@H](C)[C@@H](O[C@@H]2O[C@H](C)C[C@H](N(C)C)[C@H]2O)[C@](C)(O)C[C@@H](C)CN(C)[C@H](C)[C@@H](O)[C@]1(C)O [Azithromycin] + C1=CC(=CC(=C1)Cl)NN=C(C#N)C#N [CCCP] | -0.104 | -0.0316 | -0.0482 | -0.0621 |  |  |  | 
2 | CC[C@H]1OC(=O)[C@H](C)[C@@H](O[C@H]2C[C@@](C)(OC)[C@@H](O)[C@H](C)O2)[C@H](C)[C@@H](O[C@@H]2O[C@H](C)C[C@H](N(C)C)[C@H]2O)[C@](C)(O)C[C@@H](C)CN(C)[C@H](C)[C@@H](O)[C@]1(C)O [Azithromycin] + CC1(C)S[C@@H]2[C@H](NC(=O)Cc3ccccc3)C(=O)N2[C@H]1C(=O)O [PenicillinG] | 0.0629 | -0.0514 | -0.087 | 0.0489 |  |  |  | 
3 | CC[C@H]1OC(=O)[C@H](C)[C@@H](O[C@H]2C[C@@](C)(OC)[C@@H](O)[C@H](C)O2)[C@H](C)[C@@H](O[C@@H]2O[C@H](C)C[C@H](N(C)C)[C@H]2O)[C@](C)(O)C[C@@H](C)CN(C)[C@H](C)[C@@H](O)[C@]1(C)O [Azithromycin] + CC(=O)O[C@H]1C[C@@]2(C)[C@@H](C[C@@H](O)[C@H]3[C@@]4(C)CC[C@@H](O)[C@@H](C)[C@@H]4CC[C@@]32C)/C1=C(\CCC=C(C)C)C(=O)O [Fusidic acid] | -0.119 | -0.0342 | 0.0362 | -0.0761 |  |  |  | 
4 | CC[C@H]1OC(=O)[C@H](C)[C@@H](O[C@H]2C[C@@](C)(OC)[C@@H](O)[C@H](C)O2)[C@H](C)[C@@H](O[C@@H]2O[C@H](C)C[C@H](N(C)C)[C@H]2O)[C@](C)(O)C[C@@H](C)CN(C)[C@H](C)[C@@H](O)[C@]1(C)O [Azithromycin] + CC[C@H]1OC(=O)[C@H](C)C(=O)[C@H](C)[C@@H](O[C@@H]2O[C@H](C)C[C@H](N(C)C)[C@H]2O)[C@](C)(OC)C[C@@H](C)C(=O)[C@H](C)[C@H]2N(CCCCn3cnc(-c4cccnc4)c3)C(=O)O[C@]12C [Telithromycin] | 0.0342 | -0.0311 | -0.0389 | 0.0272 |  |  |  | 
5 | CC[C@H]1OC(=O)[C@H](C)[C@@H](O[C@H]2C[C@@](C)(OC)[C@@H](O)[C@H](C)O2)[C@H](C)[C@@H](O[C@@H]2O[C@H](C)C[C@H](N(C)C)[C@H]2O)[C@](C)(O)C[C@@H](C)CN(C)[C@H](C)[C@@H](O)[C@]1(C)O [Azithromycin] + CC[C@H]1OC(=O)[C@H](C)[C@@H](O[C@H]2C[C@@](C)(OC)[C@@H](O)[C@H](C)O2)[C@H](C)[C@@H](O[C@@H]2O[C@H](C)C[C@H](N(C)C)[C@H]2O)[C@](C)(O)C[C@@H](C)C(=O)[C@H](C)[C@@H](O)[C@]1(C)O [Erythromycin] | -0.0754 | -0.056 | -0.0668 | 0.0539 |  |  |  | 
6 | CC[C@H]1OC(=O)[C@H](C)[C@@H](O[C@H]2C[C@@](C)(OC)[C@@H](O)[C@H](C)O2)[C@H](C)[C@@H](O[C@@H]2O[C@H](C)C[C@H](N(C)C)[C@H]2O)[C@](C)(O)C[C@@H](C)CN(C)[C@H](C)[C@@H](O)[C@]1(C)O [Azithromycin] + CC[C@H]1OC(=O)[C@H](C)[C@@H](O[C@H]2C[C@@](C)(OC)[C@@H](O)[C@H](C)O2)[C@H](C)[C@@H](O[C@@H]2O[C@H](C)C[C@H](N(C)C)[C@H]2O)[C@](C)(OC)C[C@@H](C)C(=O)[C@H](C)[C@@H](O)[C@]1(C)O [Clarithromycin] | -0.0578 | -0.107 | -0.0536 | -0.0473 |  |  |  | 
7 | CC[C@H]1OC(=O)[C@H](C)[C@@H](O[C@H]2C[C@@](C)(OC)[C@@H](O)[C@H](C)O2)[C@H](C)[C@@H](O[C@@H]2O[C@H](C)C[C@H](N(C)C)[C@H]2O)[C@](C)(O)C[C@@H](C)CN(C)[C@H](C)[C@@H](O)[C@]1(C)O [Azithromycin] + CN(C)[C@@H]1C(O)=C(C(N)=O)C(=O)[C@@]2(O)C(O)=C3C(=O)c4c(O)ccc(Cl)c4[C@@](C)(O)[C@H]3C[C@@H]12 [Clortetracycline] | -0.344 | -0.243 | -0.192 | -0.084 |  |  |  | 
8 | CC[C@H]1OC(=O)[C@H](C)[C@@H](O[C@H]2C[C@@](C)(OC)[C@@H](O)[C@H](C)O2)[C@H](C)[C@@H](O[C@@H]2O[C@H](C)C[C@H](N(C)C)[C@H]2O)[C@](C)(O)C[C@@H](C)CN(C)[C@H](C)[C@@H](O)[C@]1(C)O [Azithromycin] + CN[C@H](CC(C)C)C(=O)N[C@H]1C(=O)N[C@@H](CC(N)=O)C(=O)N[C@H]2C(=O)N[C@H]3C(=O)N[C@H](C(=O)N[C@H](C(=O)O)c4cc(O)cc(O)c4-c4cc3ccc4O)[C@H](O[C@H]3C[C@](C)(N)[C@@H](O)[C@H](C)O3)c3ccc(c(Cl)c3)Oc3cc2cc(c3O[C@@H]2O[C@H](CO)[C@@H](O)[C@H](O)[C@H]2O[C@H]2C[C@](C)(NCc3ccc(-c4ccc(Cl)cc4)cc3)[C@@H](O)[C@H](C)O2)Oc2ccc(cc2Cl)[C@H]1O [Oritavancin] | 0.0325 | -0.0405 | -0.0766 | 0.0492 |  |  |  | 
9 | CC[C@H]1OC(=O)[C@H](C)[C@@H](O[C@H]2C[C@@](C)(OC)[C@@H](O)[C@H](C)O2)[C@H](C)[C@@H](O[C@@H]2O[C@H](C)C[C@H](N(C)C)[C@H]2O)[C@](C)(O)C[C@@H](C)CN(C)[C@H](C)[C@@H](O)[C@]1(C)O [Azithromycin] + CO[C@@]12[C@H](COC(N)=O)C3=C(C(=O)C(C)=C(N)C3=O)N1C[C@@H]1N[C@@H]12 [MitomycinC] | 0.116 | -0.0652 | 0.0499 | -0.0779 |  |  |  | 
10 | CC[C@H]1OC(=O)[C@H](C)[C@@H](O[C@H]2C[C@@](C)(OC)[C@@H](O)[C@H](C)O2)[C@H](C)[C@@H](O[C@@H]2O[C@H](C)C[C@H](N(C)C)[C@H]2O)[C@](C)(O)C[C@@H](C)CN(C)[C@H](C)[C@@H](O)[C@]1(C)O [Azithromycin] + CO[C@H]1/C=C/O[C@@]2(C)Oc3c(C)c(O)c4c(O)c(c(/C=N/N5CCN(C)CC5)c(O)c4c3C2=O)NC(=O)/C(C)=C\C=C\[C@H](C)[C@H](O)[C@@H](C)[C@@H](O)[C@@H](C)[C@H](OC(C)=O)[C@@H]1C [Rifampicin] | 0.0851 | 0.0531 | 0.0263 | -0.0821 |  |  |  | 
11 | CC[C@H]1OC(=O)[C@H](C)[C@@H](O[C@H]2C[C@@](C)(OC)[C@@H](O)[C@H](C)O2)[C@H](C)[C@@H](O[C@@H]2O[C@H](C)C[C@H](N(C)C)[C@H]2O)[C@](C)(O)C[C@@H](C)CN(C)[C@H](C)[C@@H](O)[C@]1(C)O [Azithromycin] + C[C@@H](O)[C@H]1C(=O)N2C(C(=O)O)=C(SCCNC=N)C[C@H]12 [Imipenem] | 0.105 | -0.0324 | -0.0196 | 0.0485 |  |  |  | 
12 | CC[C@H]1OC(=O)[C@H](C)[C@@H](O[C@H]2C[C@@](C)(OC)[C@@H](O)[C@H](C)O2)[C@H](C)[C@@H](O[C@@H]2O[C@H](C)C[C@H](N(C)C)[C@H]2O)[C@](C)(O)C[C@@H](C)CN(C)[C@H](C)[C@@H](O)[C@]1(C)O [Azithromycin] + Clc1ccc(COC(Cn2ccnc2)c2ccc(Cl)cc2Cl)c(Cl)c1 [Miconazole] | 0.0679 | -0.0368 | 0.0828 | 0.0855 |  |  |  | 
13 | CC[C@H]1OC(=O)[C@H](C)[C@@H](O[C@H]2C[C@@](C)(OC)[C@@H](O)[C@H](C)O2)[C@H](C)[C@@H](O[C@@H]2O[C@H](C)C[C@H](N(C)C)[C@H]2O)[C@](C)(O)C[C@@H](C)CN(C)[C@H](C)[C@@H](O)[C@]1(C)O [Azithromycin] + N[C@@H]1CONC1=O [CycloserineD] | 0.0718 | -0.103 | 0.0743 | 0.135 |  |  |  | 
14 | CC[C@H]1OC(=O)[C@H](C)[C@@H](O[C@H]2C[C@@](C)(OC)[C@@H](O)[C@H](C)O2)[C@H](C)[C@@H](O[C@@H]2O[C@H](C)C[C@H](N(C)C)[C@H]2O)[C@](C)(O)C[C@@H](C)CN(C)[C@H](C)[C@@H](O)[C@]1(C)O [Azithromycin] + O=C1CN(/N=C/c2ccc([N+](=O)[O-])o2)C(=O)N1 [Nitrofurantoin] | -0.117 | -0.0881 | -0.0835 | -0.215 |  |  |  | 
15 | CC[C@H]1OC(=O)[C@H](C)[C@@H](O[C@H]2C[C@@](C)(OC)[C@@H](O)[C@H](C)O2)[C@H](C)[C@@H](O[C@@H]2O[C@H](C)C[C@H](N(C)C)[C@H]2O)[C@](C)(O)C[C@@H](C)CN(C)[C@H](C)[C@@H](O)[C@]1(C)O [Azithromycin] + O=C(O)[C@H]1/C(=C/CO)O[C@@H]2CC(=O)N21 [Clavulanic] | 0.115 | -0.136 | 0.239 | -0.0573 |  |  |  | 
16 | CC[C@H]1OC(=O)[C@H](C)[C@@H](O[C@H]2C[C@@](C)(OC)[C@@H](O)[C@H](C)O2)[C@H](C)[C@@H](O[C@@H]2O[C@H](C)C[C@H](N(C)C)[C@H]2O)[C@](C)(O)C[C@@H](C)CN(C)[C@H](C)[C@@H](O)[C@]1(C)O [Azithromycin] + Oc1cc(Cl)ccc1Oc1ccc(Cl)cc1Cl [Triclosan] | -0.0359 | -0.133 | -0.0316 | -0.0322 |  |  |  | 
17 | CC1=C(C(=O)O)N2C(=O)[C@@H](NC(=O)[C@H](N)c3ccccc3)[C@H]2SC1 [Cephalexin] + CC1(C)S[C@@H]2[C@H](NC(=O)Cc3ccccc3)C(=O)N2[C@H]1C(=O)O [PenicillinG] | 0.0543 | -0.0449 | -0.0472 | -0.199 |  |  |  | 
18 | CC1=C(C(=O)O)N2C(=O)[C@@H](NC(=O)[C@H](N)c3ccccc3)[C@H]2SC1 [Cephalexin] + CC(=O)O[C@H]1C[C@@]2(C)[C@@H](C[C@@H](O)[C@H]3[C@@]4(C)CC[C@@H](O)[C@@H](C)[C@@H]4CC[C@@]32C)/C1=C(\CCC=C(C)C)C(=O)O [Fusidic acid] | 0.0683 | 0.0436 | 0.0547 | 0.143 |  |  |  | 
19 | CC1=C(C(=O)O)N2C(=O)[C@@H](NC(=O)[C@H](N)c3ccccc3)[C@H]2SC1 [Cephalexin] + CC(C1CCC(C(O1)OC2C(CC(C(C2O)OC3C(C(C(CO3)(C)O)NC)O)N)N)N)NC [Gentamicin] |  |  |  |  | -0.0985 | -0.0632 | -0.018 | -0.132
20 | CC1=C(C(=O)O)N2C(=O)[C@@H](NC(=O)[C@H](N)c3ccccc3)[C@H]2SC1 [Cephalexin] + CCC[C@@H]1C[C@@H](C(=O)N[C@@H]([C@H]2O[C@H](SC)[C@H](O)[C@@H](O)[C@H]2O)[C@H](C)Cl)N(C)C1 [Clindamycin] | -0.0509 | -0.0563 | 0.138 | 0.14 |  |  |  | 
21 | O=C(O)[C@H]1/C(=C/CO)O[C@@H]2CC(=O)N21 [Clavulanic] + C/C(=C\C(=O)OCCCCCCCCC(=O)O)C[C@@H]1OC[C@H](C[C@@H]2O[C@H]2[C@@H](C)[C@H](C)O)[C@@H](O)[C@H]1O [Pseudomonic acid] | -0.0513 |  |  | -0.0849 |  |  |  | 
22 | O=C(O)[C@H]1/C(=C/CO)O[C@@H]2CC(=O)N21 [Clavulanic] + CN[C@@H]1[C@H](O[C@H]2[C@H](O[C@H]3[C@H](O)[C@@H](O)[C@H](N=C(N)N)[C@@H](O)[C@@H]3N=C(N)N)O[C@@H](C)[C@]2(O)C=O)O[C@@H](CO)[C@H](O)[C@H]1O [Streptomycin] | 0.0954 |  | 0.218 | 0.0425 |  |  |  | 
